Source: patent US9000188B2, “Monocyclic cyanoenones and methods of use thereof” (Trustees of Dartmouth College, priority 2008, dated 2015)
“Also recorded” adds a separate entry of the source.

How the values were obtained:
[1] = test system: IFNγ-induced NO production in RAW cells; experiment: iNOS assay: inhibition of NO production in RAW cells stimulated by interferon-γ; type: cell-based; conditions: for IC50: Suppression of IFNγ-induced NO production, 24 h, Griess reaction, average of two experiments, read-out: RAW (10 ng/ml IFNγ) IC50
Experimental: (§1) Compounds of the present disclosure have been tested for inhibition of nitric oxide (NO) production in RAW cells stimulated by interferon-γ (iNOS assay) and induction of NAD(P)H-quinone oxidoreductase in Hepa1c1c7 cells (NQO1 assay), both assay systems we have previously employed. At the same time, CDDO and TBE-31 were tested as a positive controls in the same assays. […] The potency in the iNOS assay is more than CDDO (pentacycle), whose methyl ester is currently evaluated in Phase II clinical trials as an anti-inflammatory drug. Also the potency correlates to their reactivity as Michael acceptors based on the above-summarized UV studies.
For the iNOS assay, RAW cells were treated with various concentrations of compounds and interferon-γ (10 ng/mL) for 24 h. Supernatants were analyzed for nitric oxide (NO) by the Griess reaction. IC50 values are an average of two separate experiments.

[2] = test system: NAD(P)H-quinone oxidoreductase in Hepa1c1c7 cells; experiment: NQO1 assay: induction of NAD(P)H-quinone oxidoreductase in Hepa1c1c7 cells; type: cell-based
Experimental: Novel monocyclic cyano enones (MCEs) were synthesized and their Michael reactivity and biological activity were tested in order to identify useful fragments for drug discovery. […] MCE-1 gives reversible and selective Michael adducts with thiol nucleophiles.
as §1

Keap1 = Keap1 (Mus musculus, UniProt Q9Z2X8); experiment: UV studies with Keap1; conditions: thiol-rich protein
Text: Keap1 is an electrophile sensor in the cellular Keap1-Nrf2-antioxidant response elements (ARE) phase II response pathway that regulates the transcription of genes for cytoprotective enzymes such as HO-1 and NQO1.

[3] = test system: IFNγ-induced NO production in RAW cells; conditions: RAW cells stimulated by interferon-γ; cited from earlier work
[4] = test system: aflatoxin-induced liver cancer; conditions: rats, orally active; cited from earlier work

Chain of Keap1 (Q9Z2X8 whole entry): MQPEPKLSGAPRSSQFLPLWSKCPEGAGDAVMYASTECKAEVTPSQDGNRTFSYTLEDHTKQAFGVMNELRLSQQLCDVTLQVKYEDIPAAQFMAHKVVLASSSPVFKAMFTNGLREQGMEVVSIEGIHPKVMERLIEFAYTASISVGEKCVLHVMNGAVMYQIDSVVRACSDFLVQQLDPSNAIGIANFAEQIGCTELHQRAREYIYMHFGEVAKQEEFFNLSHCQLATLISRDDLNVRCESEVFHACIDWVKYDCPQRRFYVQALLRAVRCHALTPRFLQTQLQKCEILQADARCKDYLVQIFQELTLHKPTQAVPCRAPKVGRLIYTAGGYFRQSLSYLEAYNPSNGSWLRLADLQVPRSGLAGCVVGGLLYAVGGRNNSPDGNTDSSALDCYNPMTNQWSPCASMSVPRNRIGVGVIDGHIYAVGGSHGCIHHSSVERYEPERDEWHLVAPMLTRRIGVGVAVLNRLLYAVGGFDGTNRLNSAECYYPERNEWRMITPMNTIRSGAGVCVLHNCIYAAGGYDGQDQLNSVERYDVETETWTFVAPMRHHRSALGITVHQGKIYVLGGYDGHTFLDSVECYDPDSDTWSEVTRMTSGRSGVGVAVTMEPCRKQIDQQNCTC

Structure (SMILES) | IC50 [1] | potency in the NQO1 assay (in words) [2] | also measured
CC1(C)CC[C@]2(C(=O)O)CC[C@]3(C)[C@H](C(=O)C=C4[C@@]5(C)C=C(C#N)C(=O)C(C)(C)[C@@H]5CC[C@]43C)[C@@H]2C1 [CDDO, 2-cyano-3,12-diooxooleana-1,9(11)-dien-28-oic acid, reference compound] | 20 nM |  | 
C#CC1(C)C=CC(=O)C(C#N)=C1 (stereo not shown) [MCE-1, 3-Ethynyl-3-methyl-6-oxocyclohexa-1,4-dienecarbonitrile] | 8 nM | highly potent; also recorded: highest potency amongst MCEs | potency in the iNOS assay (in words) ([1]; RAW cells stimulated by interferon-γ): highly potent; also recorded: higher than CDDO; also recorded: highest potency amongst MCEs; reactivity with Keap1 (UV) (Keap1): highest reactivity
CC1(C)C=CC(=O)C(C#N)=C1 [MCE-2, reference compound] | 380 nM |  | 
C#C[C@]12C=C(C#N)C(=O)C=C1[C@@]1(C)CCC(=O)C(C)(C)[C@@H]1CC2 [MCE-7] | > 300 nM | less potent than MCE-1 | activity in the iNOS assay ([1]; at a concentration of 300 nM): inactive
C=CC1(C)C=CC(=O)C(C#N)=C1 (stereo not shown) [MCE-15, 3-methyl-6-oxo-3-vinyl-cyclohexa-1,4-dienecarbonitrile] | 300 nM |  | 
C#CC12C=C(C#N)C(=O)C=C1[C@@]1(C)C=C(C#N)C(=O)C(C)(C)[C@@H]1CC2 (stereo partly shown) [TBE-31] | 1 nM |  | inhibition of NO production (iNOS assay), literature [3]: low nanomolecular concentrations; potency against aflatoxin-induced liver cancer [4]: exceptionally potent
